Data as given in US20250257077A1, “BRIDGED BICYCLIC HETEROCYCLOALKYL PYRIDO-[3,4-d]PYRIDAZINE AMINE DERIVATIVES USEFUL AS NLRP3 INHIBITORS” (Ventus Therapeutics U.S., Inc., priority 2022, published 2025).
≈ marks a conversion by molar mass, not a printed value. Like-named read-outs stand apart in the source and are kept apart here.

How the values were obtained:
human NLRP3 = molecular target: T1, human NLRP3 (Homo sapiens, UniProt Q96P20); assay: Human Whole Blood (hWB) NLRP3 Assay; format: cell-based; conditions: LPS priming, ATP activation, IL-1β levels
T1 construct: Human whole blood is drawn from healthy volunteers after obtaining written informed consent; from tissue
Protocol: (ii) Human Whole Blood (hWB) NLRP3 Assay
Human whole blood is drawn from healthy volunteers after obtaining written informed consent. Heparin lithium coated tubes are used to collect blood from volunteers. Blood samples are distributed on 96 well plates using 90 μl per well. Priming is performed by adding 5 μl of LPS (026: B6; Sigma L-2654) at a final concentration of 1 μg/ml for 4.5 hours in a humidified incubator with 37° C. 5% CO2. Thirty minutes prior to NLRP3 activation, 5 μl of a 20× compound solution or vehicle (2% dimethylsulfoxide (DMSO)) is added to each well and plates were incubated on a shaker (450 rpm) in a humidified incubator with 37° C., 5% CO2. Activation is then performed by adding 3.3 μl of a 31× ATP solution per well. At the end of the 30 minutes stimulation, the plates are centrifuged (800 g, 10 min, room temperature) and the plasma from each well is frozen at −80° C. IL-1β levels in the supernatant were analyzed using a mesoscale discovery assay (MSD K151TUK) according to the manufacturers’ instructions.

[1] = Mouse Hepatocyte Stability Assay; format: in vitro ADME; conditions: mouse hepatocytes, 37° C.; read-out: Hep (mouse) (t½ min)
Protocol: (§1) (v) Mouse and Human Hepatocyte Stability Assays
(§2) A hepatocyte stability assay is a laboratory-based method used to determine the metabolic stability of a compound in hepatocytes (liver cells). This assay provides valuable information about how quickly a drug is metabolized in the liver and can be used to assess its potential effectiveness and safety in drug discovery.
(§3) In the assay, cither human or mouse hepatocytes are incubated with the test compound at a controlled temperature of 37° C., for different time periods (e.g., 5, 15, 30, 60, and 120 minutes). At each time point during the incubation, samples are taken, the reaction is terminated, and the amount of test compound remaining analyzed using LC-MS/MS to monitor the disappearance of the test compound over time (Gradient). […] See, e.g., Coe et al., Methods in Pharmacology & Toxicology (2008) 151.

[2] = Brain Levels (Kp and Kpu,u); format: in vivo, CDI mice; conditions: for Kp at 24 h: mice dosed at 20 mpk PO, whole brain AUC over 24 h divided by plasma AUC; for Kp: oral, 20 mpk
Protocol: (iv) Brain Levels (Kp and Kpu,u)—NLRP3
The in vivo total brain to plasma ratio was assessed in CDI mice after oral administration of the compound. Blood was collected at several timepoints up to 24 h, and transferred into plastic micro centrifuge tubes with EDTA-K2 as anticoagulant. Blood samples were centrifuged at 4000 g for 5 minutes at 4° C., to obtain plasma, then immediately frozen and stored at −75±15° C., prior to analysis. Animals were terminally anaesthetized with a rising concentration of CO2 gas at about 1 minute. At selected timepoints, whole brains were removed from the skull, rinsed in cold PBS to remove blood, dried with clean gauze, then frozen in liquid nitrogen and kept at −75±15° C. before analysis. At the time of analysis, brain samples were homogenized with PBS by tissue weight (g) to PBS volume (mL) ratio 1:3.
Plasma and brain drug levels were quantified by LC/MS/MS on an AB Sciex Triple Quad 5500+instrument, after separation on a HALO 160 A ES-C18, 2.7 μm 2.1×50 mm column. Quantitation was performed using a calibration curve prepared in blank plasma or blank brain homogenate. The software WinNonlin (Phoenix™) was used for pharmacokinetic analysis from the concentrations versus time data, including the AUCinf and AUClast. The Kp ratio (total brain concentration over total plasma concentration) was calculated as (AUCtot,br)/(AUCtot,pl).
The unbound brain exposure was assessed as Kpuu, which is the free brain/free plasma concentration ratio (Cu,bt/Cu,pl). The Cu,br/Cu,pl ratios were obtained from in vivo total brain to plasma ratios (Ctot,br/Ctot,pl) by using in vitro determined Fu,br and Fu,pl.
Plasma protein binding and brain homogenate protein binding were measured by equilibrium dialysis in a HTDialysis plate. The dialysis membranes were soaked in ultrapure water for 60 minutes to separate strips, then in 20% ethanol for 20 minutes, finally in dialysis buffer for 20 minutes. The dialysis set up was assembled according to the manufacturer's instruction. Each cell received 150 μL of plasma or brain homogenate spiked with 1 mM of compound, and dialyzed against an equal volume of dialysis buffer (PBS). The dialysis plate was sealed and incubated in an incubator at 37° C. with 5% CO2 at 100 rpm for 6 hours. At the end of incubation, compound concentration was measured in both chambers by LC-MS/MS on a Triple Quad™ 5500 from AB Inc after separation on a XSelect Hss T3.2.5μ (2.1×30 mm) column. Free fraction (Fu) was calculated as (Peak Area Ratio buffer chamber/Peak Area Ratio plasma chamber). Kpuu=(AUCtot,br×Fu,br)/([…])
The Kpu,u was then calculated upon correcting this kp value with mouse plasma protein binding and mouse brain homogenates binding.
A Kpu,u value >0.3 is considered brain penetrant, and a Kpu,u value ≤0.3 is not considered brain penetrant. When the Kpu,u value is not determined, the Kp value may be useful as a metric of potential brain penetrance if the Kp value is >0.3.

[3] = Human Hepatocyte Stability Assay; format: in vitro ADME; conditions: human hepatocytes, 37° C.; read-out: Hep (human) (t½ min)
Protocol: as §1, §2, §3

[4] = Solubility Protocol in Phosphate Buffered Saline (PBS); format: physicochemical; conditions: for solubility at 2 h: pH 7.4, aqueous buffer
Protocol: (vi) Solubility Protocol in Phosphate Buffered Saline (PBS)
The kinetic solubility of test compounds and control compounds was measured in commercial phosphate buffered saline (PBS), pH 7.4 (Wisent, Canada).
Briefly, a stock solution (20 mM DMSO for controls, and 10 mM DMSO for test compounds) was combined with PBS buffer to reach a targeted concentration of 400 μM for controls and 200 μM for test compounds. The spiked-PBS mixtures were then agitated on a VX-2500 multi-tube vortexer (VWR) for 2 hours at room temperature (18° C.). Following agitation, the samples were filtered on a glass fiber filter (1 μm) and the eluates were diluted 400-fold with a mixture of acetonitrile:water (1:1). Solubility determination was then performed against one standard sample prepared in high organic content at the expected top concentration. The lower limit of quantification was arbitrarily set at 1 μM (400-fold dilution of the top concentration) for assay controls, and 0.5 μM for test compounds. On each experimental run, nicardipine and imipramine were assessed as reference compounds for low and high solubility, respectively. All samples were assessed in triplicate and analyzed by LC-MS/MS (using a CTC PAL autosampler, Thermo Accela UPLC, and a Thermo Quantum mass spectrometer) using electrospray ionization against standards prepared in the same matrix

[5] = CDI, mouse, brain (whole brain homogenate) relative to plasma, po, 20 mg/kg
[6] = CDI, mouse, brain (whole brain homogenate) relative to plasma, brain levels, mice
[7] = CDI, mouse, brain (whole brain homogenate) relative to plasma, po, 20 mg/kg, Kp corrected with mouse plasma protein binding and mouse brain homogenates binding, 20 mpk PO, read-out: Kpu,u
[8] = phosphate buffered saline (PBS), 18 °C, kinetic from dmso stock

T1 sequence (Q96P20 whole entry): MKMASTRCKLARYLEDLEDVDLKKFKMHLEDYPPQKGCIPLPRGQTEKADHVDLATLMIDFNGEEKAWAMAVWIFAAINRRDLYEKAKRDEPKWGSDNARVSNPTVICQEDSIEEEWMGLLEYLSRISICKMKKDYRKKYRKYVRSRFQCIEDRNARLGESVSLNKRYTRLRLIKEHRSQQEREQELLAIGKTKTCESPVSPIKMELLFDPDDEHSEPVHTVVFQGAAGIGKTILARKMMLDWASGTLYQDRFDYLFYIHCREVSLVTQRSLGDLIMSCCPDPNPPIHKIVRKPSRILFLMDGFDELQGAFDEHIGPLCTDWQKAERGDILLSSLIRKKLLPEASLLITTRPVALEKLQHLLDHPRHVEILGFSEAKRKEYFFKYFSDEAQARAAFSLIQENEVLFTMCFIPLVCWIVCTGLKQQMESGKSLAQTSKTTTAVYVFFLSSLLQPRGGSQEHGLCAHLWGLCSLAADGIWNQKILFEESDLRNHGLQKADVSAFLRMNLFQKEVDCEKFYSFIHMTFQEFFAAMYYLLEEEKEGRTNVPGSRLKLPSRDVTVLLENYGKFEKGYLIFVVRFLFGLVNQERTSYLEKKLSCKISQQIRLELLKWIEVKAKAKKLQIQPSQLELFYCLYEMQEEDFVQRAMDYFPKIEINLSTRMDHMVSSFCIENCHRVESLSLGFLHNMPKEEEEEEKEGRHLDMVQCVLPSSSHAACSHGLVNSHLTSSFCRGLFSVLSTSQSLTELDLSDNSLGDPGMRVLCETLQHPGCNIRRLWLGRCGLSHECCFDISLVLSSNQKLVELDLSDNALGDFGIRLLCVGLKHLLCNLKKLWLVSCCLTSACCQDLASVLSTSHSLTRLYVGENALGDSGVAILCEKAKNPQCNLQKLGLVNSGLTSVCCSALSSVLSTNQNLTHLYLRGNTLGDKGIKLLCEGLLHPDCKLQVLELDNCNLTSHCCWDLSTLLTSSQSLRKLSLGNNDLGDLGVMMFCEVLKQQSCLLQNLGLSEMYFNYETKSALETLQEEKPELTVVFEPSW

Compound	IC50 (human NLRP3) [µM]	half-life [1] [h]	further results
6-(1-(((1R,5S,8s)-3-oxabicyclo[3.2.1]octan-8-yl)amino)pyrido[3,4-d]pyridazin-4-yl)-2-fluoro-3-methylphenol [Compound 15A-regioisomer]	1.51		
Oc1cc(Cl)ccc1-c1nnc(N[C@H]2C[C@@H]3CC[C@H]2O3)c2cnccc12 (single isomer, unassigned) [Compound 3B*]	5		
Oc1cc(Cl)ccc1-c1nnc(N[C@@H]2C[C@H]3CC[C@@H]2O3)c2cnccc12 (single isomer, unassigned) [Compound 3C*]	0.27	1.67	
Oc1cc(Cl)ccc1-c1nnc(N[C@H]2C[C@H]3CC[C@@H]2O3)c2cnccc12 (single isomer, unassigned) [Compound 3D*]	2.42	0.167	
Cc1ccc(-c2nnc(N[C@@H]3C[C@@H]4CC[C@H]3O4)c3cnccc23)c(O)c1 (single isomer, unassigned) [Compound 7A]	0.23	0.95	Kp at 24 h [2, 5]: 0.61; half-life [3]: > 8 h
Cc1ccc(-c2nnc(N[C@H]3C[C@@H]4CC[C@H]3O4)c3cnccc23)c(O)c1 (single isomer, unassigned) [Compound 7B]	5.3		
Cc1ccc(-c2nnc(N[C@@H]3C[C@H]4CC[C@@H]3O4)c3cnccc23)c(O)c1 (single isomer, unassigned) [Compound 7C]	0.11	0.35	Kp [2, 6]: 0.61; half-life [3]: 4.67 h
Cc1ccc(-c2nnc(N[C@H]3C[C@H]4CC[C@@H]3O4)c3cnccc23)c(O)c1 (single isomer, unassigned) [Compound 7D]	4.66		
Oc1cc(Cl)ccc1-c1nnc(N[C@@H]2C[C@@H]3C[C@H]2CO3)c2cnccc12 (single isomer, unassigned) [Compound 8A]	0.27	4.17	
Oc1cc(Cl)ccc1-c1nnc(N[C@H]2C[C@H]3C[C@@H]2CO3)c2cnccc12 (single isomer, unassigned) [Compound 8B]	0.59	4.67	Kp [2, 6]: 0.35; Kpu,u [2, 7]: 0.1; Kp at 24 h [2, 5]: 0.35; Kpu,u ([2]; brain levels, unbound, mice): — 0.10; solubility kinetic at 2 h ([4]; phosphate buffered saline (PBS), 18 °C, aqueous buffer, kinetic from dmso stock, kinetic solubility, PBS pH 7.4, 2 hours at room temperature): > 300 µM; solubility at 2 h [4, 8]: > 300 µM
Oc1cc(Cl)ccc1-c1nnc(N[C@]23CCC(C2)OC3)c2cnccc12 (single isomer, unassigned) [Compound 9A]	> 50		
Oc1cc(Cl)ccc1-c1nnc(N[C@@]23CCC(C2)OC3)c2cnccc12 (single isomer, unassigned) [Compound 9B]	> 50		
Oc1cc(C(F)(F)F)ccc1-c1nnc(N[C@H]2C[C@@H]3CC[C@H]2O3)c2cnccc12 (single isomer, unassigned) [Compound 10B*]	6.76		
Oc1cc(C(F)(F)F)ccc1-c1nnc(N[C@@H]2C[C@H]3CC[C@@H]2O3)c2cnccc12 (single isomer, unassigned) [Compound 10C*]	0.81	2.33	Kp [2, 6]: 0.48; Kpu,u [2, 7]: 0.21; Kp at 24 h [2, 5]: 0.48; Kpu,u ([2]; brain levels, unbound, mice): 0.21; half-life [3]: 7.83 h
Oc1cc(C(F)(F)F)ccc1-c1nnc(N[C@H]2C[C@H]3CC[C@@H]2O3)c2cnccc12 (single isomer, unassigned) [Compound 10D*]	5.34	8	half-life [3]: > 8 h
Oc1cc(Cl)ccc1-c1nnc(N[C@H]2C[C@H]3CC[C@@H](C2)O3)c2cnccc12 [Compound 1A*-r, 2-(4-(((1R,3r,5S)-8-oxabicyclo[3.2.1]octan-3-yl)amino)pyrido[3,4-d]pyridazin-1-yl)-5-chlorophenol]	1.39		Kp [2, 6]: 0.047; Kp at 24 h [2, 5]: 0.047; Sol (PBS) ([4]; kinetic solubility, PBS pH 7.4, 2 hours at room temperature): 3.5 µM; solubility at 2 h [4, 8]: 3.5 µM (≈ 1.34 µg/mL)
Cc1ccc(-c2nnc(N[C@@H]3C[C@H]4CC[C@@H](C3)O4)c3cnccc23)c(O)c1 [Compound 2B*-r, 2-(4-(((1R,3s,5S)-8-oxabicyclo[3.2.1]octan-3-yl)amino)pyrido[3,4-d]pyridazin-1-yl)-5-methylphenol]	4.12	3.67	
Cc1ccc(-c2nnc(N[C@H]3C[C@H]4CC[C@@H](C3)O4)c3cnccc23)c(O)c1F [Compound 12A*-r, 6-(4-(((1R,3r,5S)-8-oxabicyclo[3.2.1]octan-3-yl)amino)pyrido[3,4-d]pyridazin-1-yl)-2-fluoro-3-methylphenol]	2	3.33	
Cc1cc(O)c(-c2nnc(N[C@H]3[C@@H]4CC[C@H]3COC4)c3cnccc23)c(F)c1 [Compound 16A, 2-(4-(((1R,5S,8s)-3-oxabicyclo[3.2.1]octan-8-yl)amino)pyrido[3,4-d]pyridazin-1-yl)-3-fluoro-5-methylphenol]	0.48		
Cc1cc(C)c(-c2nnc(N[C@H]3[C@@H]4CC[C@H]3COC4)c3cnccc23)c(O)c1 [Compound 17A, 2-(4-(((1R,5S,8s)-3-oxabicyclo[3.2.1]octan-8-yl)amino)pyrido[3,4-d]pyridazin-1-yl)-3,5-dimethylphenol]	0.31		
N#Cc1ccc(-c2nnc(N[C@H]3[C@@H]4CC[C@H]3COC4)c3cnccc23)c(O)c1 [Compound 18A, 4-(4-(((1R,5S,8s)-3-oxabicyclo[3.2.1]octan-8-yl)amino)pyrido[3,4-d]pyridazin-1-yl)-3-hydroxybenzonitrile]	0.32		
